Assay results reported in patent US20230346670A1, “Prebiotic Oral Care Compositions and Methods” (Colgate-Palmolive Company, priority 2020, published 2023).
Values joined by “and” are separate entries in the source; they are usually repeats but may differ in a detail not shown here. Equal values may be shown once.

Columns and labels:
Format in all cases: cell-based
[1] = system: S. salivarius; test: Multi-species biofilm composition, absolute abundance (Geq/mL); settings: repeated rinsing
[2] = system: V. parvula; test: as above; settings: repeated rinsing
[3] = system: S. mutans; test: as above; settings: repeated rinsing
[4] = system: F. nucleatum; test: as above; settings: repeated rinsing
Outline: (§1)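 Biofilms grown vertically on CAD-HA disks in the Amsterdam Active Adhesion model, 24 h at 37° C., 170 rpm, microaerophilic (6% O2, 7% CO2, 7% H2, 80% N2). Then rinsed 3 times a day for 3 minutes at 1 M substrate for 3 days; PBS (pH 5.7) control. Values are log(Geq/mL), mean ± SD, n = 3.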

[5] = system: S. sanguinis; test: as above; settings: repeated rinsing
Outline: as §1

[6] = system: A. viscosus; test: as above; settings: repeated rinsing
[7] = system: human oral keratinocytes (HOK-18A); test: Inflammatory mediator gene expression in keratinocytes exposed to substrate-treated biofilms (SYBR RT-qPCR); settings: relative to control, n = 3
Outline: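 HOK-18A keratinocytes were exposed to multi-species biofilms treated with substrates dissolved in PBS at 1 M or 1% (w/v). Inflammatory mediator expression was measured by SYBR RT-qPCR against β-actin, with fold change versus control by 2^-ΔΔCt, reported as geometric mean (n = 3).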

[8] = system: S. gordonii; test: Multi-species biofilm composition, absolute abundance (Geq/mL); settings: repeated rinsing
Outline: as §1

[9] = system: A. naeslundii; test: as above; settings: repeated rinsing
Outline: as §1

[10] = system: P. gingivalis; test: as above; settings: repeated rinsing
Outline: as §1

[11] = system: S. mitis; test: as above; settings: repeated rinsing
[12] = system: P. intermedia; test: as above; settings: repeated rinsing
Outline: as §1

[13] = system: S. sobrinus; test: as above; settings: repeated rinsing
Outline: as §1

[14] = system: S. oralis; test: as above; settings: repeated rinsing
Outline: as §1

[15] = system: A. actinomycetemcomitans; test: as above; settings: repeated rinsing
[16] = system: multi-species biofilm (beneficial/commensal species, periodontal pathogens, cariogenic pathogens); test: Multi-species biofilm composition, relative proportions and group changes
Outline: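 Multi-species biofilms grown 24 h on calcium-deficient hydroxyapatite disks in the Amsterdam Active Adhesion model. Then rinsed 3 times daily for 3 min (RT, 250 rpm) over 3 days with 1 M NADG, α-D-lactose, D-(+)-trehalose or D-(+)-raffinose; PBS pH 5.7 without substrate as control. Species abundance given as mean ± SD (n = 3) log genome equivalents per mL.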

[17] = HOK-18A exposed to biofilms treated with substrate 1% (w/v)
[18] = HOK-18A exposed to biofilms treated with substrate 1 M
[19] = Table 3, separate experiments, concentration not given

Structure (SMILES): CC(=O)N[C@H]1C(O)O[C@H](CO)[C@@H](O)[C@@H]1O (stereo partly drawn) [NADG, N-acetyl-D-glucosamine]
- absolute abundance of S. salivarius, mean ± SD log (Geq/mL) ([1]; substrate 1% (w/v)): 2.65 ± 0.00 log (Geq/mL)
- absolute abundance of S. salivarius, mean ± SD log (Geq/mL) ([1]; substrate 1 M in PBS, n = 3): 6.40 ± 0.29^∗ log (Geq/mL)
- absolute abundance of V. parvula (VP), mean ± SD log (Geq/mL) ([2]; substrate 1% (w/v)): 9.77 ± 0.19 log (Geq/mL)
- absolute abundance of V. parvula (VP), mean ± SD log (Geq/mL) ([2]; substrate 1 M in PBS, n = 3): 9.91 ± 0.19 log (Geq/mL)
- absolute abundance of S. mutans, mean ± SD log (Geq/mL) ([3]; substrate 1% (w/v)): 7.83 ± 0.23 log (Geq/mL)
- absolute abundance of S. mutans, mean ± SD log (Geq/mL) ([3]; substrate 1 M in PBS, n = 3): 7.96 ± 0.10 log (Geq/mL)
- absolute abundance of F. nucleatum (Fn), mean ± SD log (Geq/mL) ([4]; substrate 1% (w/v)): 9.41 ± 0.19 log (Geq/mL)
- absolute abundance of F. nucleatum (Fn), mean ± SD log (Geq/mL) ([4]; substrate 1 M in PBS, n = 3): 7.22 ± 0.28^∗ log (Geq/mL)
- absolute abundance of S. sanguinis, mean ± SD log (Geq/mL) ([5]; substrate 1% (w/v)): 8.40 ± 0.11 log (Geq/mL)
- absolute abundance of S. sanguinis, mean ± SD log (Geq/mL) ([5]; substrate 1 M in PBS, n = 3): 6.43 ± 0.94 log (Geq/mL)
- absolute abundance of A. viscosus (Av), mean ± SD log (Geq/mL) ([6]; substrate 1% (w/v)): 7.83 ± 0.31 log (Geq/mL)
- absolute abundance of A. viscosus (Av), mean ± SD log (Geq/mL) ([6]; substrate 1 M in PBS, n = 3): 6.72 ± 0.22 log (Geq/mL)
- fold change in IL-1β gene expression, geometric mean (C.I.) [7, 17]: 0.71 (0.38-1.33)^∗ fold
- fold change in IL-6 gene expression, geometric mean (C.I.) [7, 17]: 0.73 (0.58-0.93)^∗ fold
- fold change in IL-8 gene expression, geometric mean (C.I.) [7, 17]: 1.00 (0.78-1.27) fold
- fold change in MMP-8 gene expression, geometric mean (C.I.) [7, 17]: 0.52 (0.17-1.6)^∗ fold
- fold change in TNF-α gene expression, geometric mean (C.I.) [7, 17]: 0.71 (0.28-1.35)^∗ fold
- fold change in IL-1β gene expression, geometric mean (C.I.) [7, 18]: 0.75 (0.55-1.02) fold
- fold change in IL-6 gene expression, geometric mean (C.I.) [7, 18]: 0.57 (0.46-0.71) fold
- fold change in IL-8 gene expression, geometric mean (C.I.) [7, 18]: 0.14 (0.06-0.36)^∗ fold
- fold change in MMP-8 gene expression, geometric mean (C.I.) [7, 18]: 1.28 (0.79-2.08) fold
- fold change in TNF-α gene expression, geometric mean (C.I.) [7, 18]: 0.89 (0.59-1.34) fold
- absolute abundance of S. gordonii, mean ± SD log (Geq/mL) ([8]; substrate 1% (w/v)): 8.33 ± 0.06 log (Geq/mL)
- absolute abundance of S. gordonii, mean ± SD log (Geq/mL) ([8]; substrate 1 M in PBS, n = 3): 9.80 ± 0.22^∗ log (Geq/mL)
- absolute abundance of A. naeslundii (An), mean ± SD log (Geq/mL) ([9]; substrate 1% (w/v)): 7.71 ± 0.12 log (Geq/mL)
- absolute abundance of A. naeslundii (An), mean ± SD log (Geq/mL) ([9]; substrate 1 M in PBS, n = 3): 5.41 ± 0.31^∗ log (Geq/mL)
- absolute abundance of P. gingivalis (Pg), mean ± SD log (Geq/mL) ([10]; substrate 1% (w/v)): 7.14 ± 0.28 log (Geq/mL)
- absolute abundance of P. gingivalis (Pg), mean ± SD log (Geq/mL) ([10]; substrate 1 M in PBS, n = 3): 4.43 ± 0.14^∗ log (Geq/mL)
- absolute abundance of S. mitis, mean ± SD log (Geq/mL) ([11]; substrate 1% (w/v)): 2.65 ± 0.00 log (Geq/mL)
- absolute abundance of S. mitis, mean ± SD log (Geq/mL) ([11]; substrate 1 M in PBS, n = 3): 3.38 ± 1.04 log (Geq/mL)
- absolute abundance of P. intermedia (Pi), mean ± SD log (Geq/mL) ([12]; substrate 1% (w/v)): 8.17 ± 0.22 log (Geq/mL)
- absolute abundance of P. intermedia (Pi), mean ± SD log (Geq/mL) ([12]; substrate 1 M in PBS, n = 3): 4.09 ± 0.16^∗ log (Geq/mL)
- absolute abundance of S. sobrinus, mean ± SD log (Geq/mL) ([13]; substrate 1% (w/v)): 4.87 ± 0.22 log (Geq/mL)
- absolute abundance of S. sobrinus, mean ± SD log (Geq/mL) ([13]; substrate 1 M in PBS, n = 3): 3.46 ± 0.19^∗ log (Geq/mL)
- absolute abundance of S. oralis, mean ± SD log (Geq/mL) ([14]; substrate 1% (w/v)): 7.11 ± 0.14 log (Geq/mL)
- absolute abundance of S. oralis, mean ± SD log (Geq/mL) ([14]; substrate 1 M in PBS, n = 3): 7.96 ± 0.59 log (Geq/mL)
- absolute abundance of A. actinomycetemcomitans (Aa), mean ± SD log (Geq/mL) ([15]; substrate 1% (w/v)): 9.11 ± 0.2 log (Geq/mL)
- absolute abundance of A. actinomycetemcomitans (Aa), mean ± SD log (Geq/mL) ([15]; substrate 1 M in PBS, n = 3): 8.15 ± 0.21^∗ log (Geq/mL)
- relative proportion of beneficial or commensal species in biofilm ([16]; Table 1a, substrate 1 M): 97.86±1.11 % (Geq/mL) and 97.86 (+/- 1.11)^∗ % (Geq/mL)
- relative proportion of cariogenic pathogens in biofilm ([16]; Table 1a, substrate 1 M): 0.68±0.33 % (Geq/mL) and 0.68 (+/- 0.33) % (Geq/mL)
- relative proportion of periodontal pathogens in biofilm ([16]; Table 1a, substrate 1 M): 1.46±0.97 % (Geq/mL) and 1.46 (+/- 0.97)^∗ % (Geq/mL)
- relative proportion of beneficials/commensals in biofilm [16, 19]: 60.07 (+/- 8.25) % (Geq/mL)
- relative proportion of cariogenic pathogens in biofilm [16, 19]: 0.66±0.27 % (Geq/mL) and 0.66 (+/- 0.27^∗) % (Geq/mL)
- relative proportion of periodontal pathogens in biofilm [16, 19]: 39.27 (+/- 7.98) % (Geq/mL)
